Test results published in patent publication US11642309B2, “Aqueous compositions comprising bilastine and mometasone” (FAES FARMA, S.A., priority 2017, dated 2023).
Values after ≈ are worked out from the molar mass of the structure shown. Blank lines part the entries; values can stand above or below the compound they belong to.

How the values were obtained:
Type in all cases: physicochemical
[1] = Solubility of bilastine in water; conditions: solubility depends on the pH
[2] = Solubility of bilastine and mometasone furoate monohydrate in formulations with HPBCD 12.5 to 100 mg/mL at pH 4.3, 4.6, 4.9 (Example 3); conditions: for solubility: thermodynamic from solid
Method: (§1) HPLC measurements were conducted using a HPLC-HCLASS Chromatographic System with PDA or UV-VIS detector equipped with a Xbridge Shield RP18 3.5 μm […] Column. Mobile phases were ammonium bicarbonate (10 mM pH 9, FLUKA), acetonitrile (FISCHER) and methanol ([…]). Samples were submitted to Acrodisc 32 mm Sryinge Filters with 1.2 μm Supor Membrane, Batch: 18-1077 (PALL).
Six different formulations (with mometasone furoate monohydrate and the rest of excipients as defined in example 2) were prepared (see table below). The six formulations had amounts of HPBCD from 12.5 to 100 mg/mL. Then, in each of them an excessive amount of bilastine was added and the maximum solubility was tested. Furthermore, the percentage of the mometasone furoate dissolved was also tested. All the measurements were conducted at time 0.

[3] = Solubility of bilastine and mometasone furoate monohydrate in Kolliphor RH40 formulations (Example 4)
Method: To this end, aqueous formulations of Kolliphor RH40 at concentrations 0, 5, 15, 25 and 50 mg/mL and at pH values of 3.7, 4.0, 4.3 and 4.6 were prepared.
Additionally, 0.5 mg/mL of mometasone furoate monohydrate was added to each formulation. The influence of Kolliphor RH40 in bilastine solubility is represented in FIG. 3 in graphs A and B therein. It is shown that, at pH values above 4.3, Kolliphor RH40 at a concentration of 50 mg/mL is insufficient in solubilizing 8 mg/mL of Bilastine (FIG. 3 in graph A therein. In addition, at the concentration of 50 mg/mL and pH of 4.3, Kolliphor RH40 solubilizes more than 10% of the added mometasone furoate monohydrate (FIG. 3 in graph B therein.

[4] = Solubility of bilastine with α-cyclodextrin (FIG. 2); conditions: aqueous composition with α-cyclodextrin, aqueous with cosolvent or surfactant or cyclodextrin; 5 wt. % α-cyclodextrine instead of HPBCD, pH 4.5, FIG. 2
[5] = Stability of formulation with Kolliphor RH40 in stability chambers (Example 5); conditions: Kolliphor RH40 50 mg/mL formulation
Method: as §1
In the formulation of the present example, sorbitan monooleate acts as an antifoam agent. A batch manufactured according to the table above was prepared, packaged and placed in stability chambers wherein the conditions were 25° C./40% RH and 40° C./25% RH for the duration of 3 months.

[6] = Stability of formulas with HPBCD in stability chambers (Example 6); conditions: HPBCD 25 mg/mL
Method: as §1
The three formulas (bilastine at a concentration of 2, 4 and 8 mg/mL) were placed in stability chambers wherein the conditions were 25° C./40% RH and 40° C./25% RH for the duration of 6 or 12 months.

[7] = Mometasone impurities under forced stability conditions, increasing HPBCD (Example 7); conditions: pH 4.6, 50° C., 3 months
Method: The percentage of Mometasone was calculated-using the following formula: […]
The percentage of Mometasone degradation products was calculated using the following formula: […]
To evaluate the influence that the cyclodextrin HPBCD had on the impurities of mometasone, formulations similar to the one described in example 1 (see table therein) were studied at pH 4.6 for increasing cyclodextrin concentrations of from 25 to 95 mg/mL. The formulations were submitted to forced stability conditions at 50° C. for a 3-month period. The results were obtained from HPLC measurements.

solubility in water [1]: slightly soluble
solubility ([2]; aqueous with cosolvent or surfactant or cyclodextrin): ≥ 8000 µg/mL
solubility ([2]; pH 4.6, aqueous with cosolvent or surfactant or cyclodextrin): ~10000 µg/mL (≈ 21.6 mM)
solubility ([3]; aqueous with cosolvent or surfactant or cyclodextrin, thermodynamic from solid): < 8000 µg/mL
solubility [4]: < 1000 µg/mL
SMILES: CCOCCn1c(C2CCN(CCc3ccc(C(C)(C)C(=O)O)cc3)CC2)nc2ccccc21 [Bilastine, 2-[4-(2-{4-[1-(2-ethoxyethyl)-1H-benzimidazol-2-yl]-1-piperidinyl}ethyl)phenyl]-2-methylpropanoic acid]

solubility of mometasone furoate ([2]; HPBCD 75 mg/ml (7.5 wt. %), FIG. 1 graph B): around 4 mg/ml
Total degradation products % w/w ([5]; 25° C./40% RH, 3 months): 0.31% w/w
Total degradation products % w/w ([5]; 40° C./25% RH, 3 months): 0.33% w/w
Total degradation products % w/w ([5]; T0): 0.15% w/w
Total degradation products % w/w ([6]; formula Bilastine 2 mg/mL, 25° C. 40% RH 9 months): 0.05% w/w
Total degradation products % w/w ([6]; formula Bilastine 2 mg/mL, 25° C. 40% RH 12 months): 0.05% w/w
Total degradation products % w/w ([6]; formula Bilastine 2 mg/mL, 40° C. 25% RH 3 months): 0.15% w/w
Total degradation products % w/w ([6]; formula Bilastine 2 mg/mL, 40° C. 25% RH 6 months): 0.20% w/w
Total degradation products % w/w ([6]; formula Bilastine 2 mg/mL, T0): 0.05% w/w
Total degradation products % w/w ([6]; formula Bilastine 4 mg/mL, 25° C. 40% RH 9 months): 0.05% w/w
Total degradation products % w/w ([6]; formula Bilastine 4 mg/mL, 25° C. 40% RH 12 months): 0.05% w/w
Total degradation products % w/w ([6]; formula Bilastine 4 mg/mL, 40° C. 25% RH 3 months): 0.14% w/w
Total degradation products % w/w ([6]; formula Bilastine 4 mg/mL, 40° C. 25% RH 6 months): 0.18% w/w
Total degradation products % w/w ([6]; formula Bilastine 4 mg/mL, T0): 0.05% w/w
Total degradation products % w/w ([6]; formula Bilastine 8 mg/mL, 25° C. 40% RH 9 months): 0.05% w/w
Total degradation products % w/w ([6]; formula Bilastine 8 mg/mL, 25° C. 40% RH 12 months): 0.05% w/w
Total degradation products % w/w ([6]; formula Bilastine 8 mg/mL, 40° C. 25% RH 3 months): 0.14% w/w
Total degradation products % w/w ([6]; formula Bilastine 8 mg/mL, 40° C. 25% RH 6 months): 0.17% w/w
Total degradation products % w/w ([6]; formula Bilastine 8 mg/mL, T0): 0.05% w/w
added mometasone furoate monohydrate solubilized ([3]; Kolliphor RH40 50 mg/mL, pH 4.3, 0.5 mg/mL added, FIG. 3 graph B): more than 10%
Dissolved mometasone (%) ([7]; HPBCD 25 mg/mL): 0.7%
Mometasone impurities (%) ([7]; HPBCD 25 mg/mL): 0.2%
Dissolved mometasone (%) ([7]; HPBCD 50 mg/mL): 3.0%
Mometasone impurities (%) ([7]; HPBCD 50 mg/mL): 0.7%
Dissolved mometasone (%) ([7]; HPBCD 65 mg/mL): 5.2%
Mometasone impurities (%) ([7]; HPBCD 65 mg/mL): 1.0%
Dissolved mometasone (%) ([7]; HPBCD 85 mg/mL): 7.2%
Mometasone impurities (%) ([7]; HPBCD 85 mg/mL): 1.3%
Dissolved mometasone (%) ([7]; HPBCD 95 mg/mL): 10.5%
Mometasone impurities (%) ([7]; HPBCD 95 mg/mL): 1.9%
SMILES: C[C@@H]1C[C@H]2[C@@H]3CCC4=CC(=O)C=C[C@]4(C)[C@@]3(Cl)[C@@H](O)C[C@]2(C)[C@@]1(OC(=O)c1ccco1)C(=O)CCl.O [Mometasone Furoate monohydrate, Mometasone furoate monohydrate]
